Columns and labels:
Type in all cases: in vivo
Amaranthus retroflexus [1] = assay: Post-emergence herbicidal efficacy at 320 g/ha, AMARE; conditions: rated visually after about 3 weeks vs untreated controls, 100% = plants have died
Source text: (§1) Unwanted plants/weeds: • ABUTH: Abutilon theophrasti • ALOMY: Alopecurus myosuroides • AMARE: Amaranthus retroflexus • DIGSA: Digitaria sanguinalis • ECHCG: Echinochloa crus-galli • KCHSC: Kochia scoparia • LOLRI: Lolium rigidum • MATIN: Matricaria inodora • POAAN: Poa annua • POLCO: Polygonum convolvulus • SETVI: Setaria viridis • STEME: Stellaria media • VERPE: Veronica persica • VIOTR: Viola tricolor A. Post-Emergence Herbicidal Efficacy at 320 g/ha
(§2) Seeds of mono- and dicotyledonous weed plants were placed in plastic pots in sandy loam soil (doubly sown with in each case one species of mono- or dicotyledonous weed plants per pot), covered with soil and cultivated in a greenhouse under controlled growth conditions. 2 to 3 weeks after sowing, the test plants were treated at the one-leaf stage. The compounds of the invention, formulated in the form of wettable powders (WP) or as emulsion concentrates (EC), were applied to the green parts of the plants as aqueous suspension or emulsion with addition of 0.5% additive at a water application rate equivalent to 600 litres per hectare. After the test plants had been kept in the greenhouse under optimum growth conditions for about 3 weeks, the activity of the preparations was rated visually in comparison to untreated controls.
(§3) For example, 100% activity=the plants have died, 0% activity=like control plants.
(§4) Tables A1 to A10 below show the effects of selected compounds of the general formula (I) according to Table 1 on various harmful plants and at an application rate corresponding to 320 g/ha, which were obtained by the trial procedure specified above.

Stellaria media [2] = assay: Pre-emergence herbicide efficacy at 320 g/ha, STEME; conditions: scored visually after about 3 weeks vs untreated controls, 100% = plants have died
Source text: as §1
(§5) Seeds of mono- and dicotyledonous weed plants were placed in plastic pots in sandy loam soil (doubly sown with one species each of mono- or dicotyledonous weed plants per pot) and covered with soil. The compounds of the invention, formulated in the form of wettable powders (WP) or as emulsion concentrates (EC), were then applied to the surface of the covering soil as aqueous suspension or emulsion with addition of 0.5% additive at a water application rate of 600 litres per hectare (converted). After the treatment, the pots were placed in a greenhouse and kept under good growth conditions for the test plants. After about 3 weeks, the efficacy of the preparations was scored visually in comparison with untreated controls as percentages.
as §3
(§6) Tables C1 to C12 below show the effects of selected compounds of the general formula (I) according to Table 1 on various harmful plants and at an application rate corresponding to 320 g/ha, which were obtained by the trial procedure specified above.

Amaranthus retroflexus [3] = assay: Pre-emergence herbicide efficacy at 320 g/ha, AMARE; conditions: scored visually after about 3 weeks vs untreated controls, 100% = plants have died
Source text: as §1, §5, §3, §6

Setaria viridis = assay: Pre-emergence herbicide efficacy at 320 g/ha, SETVI; conditions: scored visually after about 3 weeks vs untreated controls, 100% = plants have died
Source text: as §1, §5, §3, §6

Veronica persica [4] = assay: Post-emergence herbicidal efficacy at 320 g/ha, VERPE; conditions: rated visually after about 3 weeks vs untreated controls, 100% = plants have died
Source text: as §1, §2, §3, §4

Stellaria media [5] = assay: Post-emergence herbicidal efficacy at 320 g/ha, STEME; conditions: rated visually after about 3 weeks vs untreated controls, 100% = plants have died
Source text: as §1, §2, §3, §4

Abutilon theophrasti = assay: Post-emergence herbicidal efficacy at 320 g/ha, ABUTH; conditions: rated visually after about 3 weeks vs untreated controls, 100% = plants have died
Source text: as §1, §2, §3, §4

Kochia scoparia [6] = assay: Pre-emergence herbicide efficacy at 320 g/ha, KCHSC; conditions: scored visually after about 3 weeks vs untreated controls, 100% = plants have died
Source text: as §1, §5, §3, §6

Digitaria sanguinalis = assay: Pre-emergence herbicide efficacy at 320 g/ha, DIGSA; conditions: scored visually after about 3 weeks vs untreated controls, 100% = plants have died
Source text: as §1, §5, §3, §6

Veronica persica [7] = assay: Pre-emergence herbicide efficacy at 320 g/ha, VERPE; conditions: scored visually after about 3 weeks vs untreated controls, 100% = plants have died
Source text: as §1, §5, §3, §6

Kochia scoparia [8] = assay: Post-emergence herbicidal efficacy at 320 g/ha, KCHSC; conditions: rated visually after about 3 weeks vs untreated controls, 100% = plants have died
Source text: as §1, §2, §3, §4

Row | Compound | Post-emergence efficacy at 320 g/ha against AMARE in % (Amaranthus retroflexus [1]) [%] | Pre-emergence efficacy at 320 g/ha against AMARE in % (Amaranthus retroflexus [3]) [%] | Post-emergence efficacy at 320 g/ha against VERPE in % (Veronica persica [4]) [%] | Post-emergence efficacy at 320 g/ha against KCHSC in % (Kochia scoparia [8]) [%] | other results
1 | COCc1cnn(-c2c(C#N)cccc2Nc2ncc(F)cn2)c1 [Example 1-69] | 100 | 100 | 100 |  | Pre-emergence efficacy at 320 g/ha against STEME in % (Stellaria media [2]): 100%; Pre-emergence efficacy at 320 g/ha against SETVI in % (Setaria viridis): 90%; Post-emergence efficacy at 320 g/ha against STEME in % (Stellaria media [5]): 100%; Post-emergence efficacy at 320 g/ha against ABUTH in % (Abutilon theophrasti): 90%
2 | N#Cc1ccc(Nc2cccc(C#N)c2-n2cc(C(F)(F)F)cn2)nc1 [Example 1-58] | 90 |  | 90 |  | 
3 | N#Cc1cccc(Nc2ncc(Cl)cn2)c1-n1cc(Cl)cn1 [Example 1-72] | 100 | 100 | 90 | 90 | Pre-emergence efficacy at 320 g/ha against KCHSC in % (Kochia scoparia [6]): 90%; Pre-emergence efficacy at 320 g/ha against SETVI in % (Setaria viridis): 90%; Pre-emergence efficacy at 320 g/ha against DIGSA in % (Digitaria sanguinalis): 90%; Pre-emergence efficacy at 320 g/ha against VERPE in % (Veronica persica [7]): 90%
4 | N#Cc1cccc(Nc2ncc(Cl)cc2F)c1-n1cc(C(F)(F)F)cn1 [Example 1-54] | 100 |  | 100 | 90 | 
5 | N#Cc1cc(Cl)cnc1Nc1ccccc1CCCCC(F)(F)F [Example 1-76] | 90 |  | 90 |  | 
6 | Cc1ccc(Nc2ncc(Cl)cn2)c(-n2cc(C(F)(F)F)cn2)c1C#N [Example 1-45] |  |  |  |  | Pre-emergence efficacy at 320 g/ha against STEME in % (Stellaria media [2]): 100%
7 | O=S(=O)(CCC(F)(F)F)Oc1c(F)cccc1Nc1ncc(Cl)cn1 [Example 1-16] |  | 90 | 90 |  | 
8 | FC(F)(F)c1cnn(-c2ccccc2Nc2ncc(Cl)cn2)c1 [Example 1-78] |  | 100 | 90 |  | Pre-emergence efficacy at 320 g/ha against SETVI in % (Setaria viridis): 90%; Post-emergence efficacy at 320 g/ha against STEME in % (Stellaria media [5]): 90%
9 | FC(F)(F)CCCc1ccccc1Nc1ccc(Cl)cn1 [Example 1-70] | 100 |  | 90 |  | 
10 | N#Cc1cccc(Nc2ncc(C(F)(F)F)cn2)c1-n1cc(C(F)(F)F)cn1 [Example 1-41] |  |  | 90 |  | 
11 | Fc1cc(Cl)cnc1Nc1cccc(F)c1-c1cc(C(F)F)no1 [Example 1-57] |  |  |  | 90 | 
12 | Fc1cnc(Nc2ccccc2SCCCC(F)(F)F)nc1 [Example 1-7] | 100 | 90 | 100 | 90 | Post-emergence efficacy at 320 g/ha against STEME in % (Stellaria media [5]): 90%; Post-emergence efficacy at 320 g/ha against ABUTH in % (Abutilon theophrasti): 90%
13 | Cc1ccc(Nc2ncc(F)cn2)c(-n2cc(C(F)(F)F)cn2)c1C#N [Example 1-46] | 90 |  | 90 |  | Pre-emergence efficacy at 320 g/ha against DIGSA in % (Digitaria sanguinalis): 90%
14 | Fc1cccc(Nc2ccc(Cl)cn2)c1-c1cc(C(F)F)no1 [Example 1-56] | 90 |  | 90 |  | 
15 | O=S(=O)(CCCC(F)(F)F)Oc1c(F)cccc1Nc1ncc(Cl)cn1 [Example 1-14] | 90 | 90 | 90 |  | 
16 | FC(F)(F)CCCc1ccccc1Nc1ncc(Cl)cn1 [Example 1-1] | 90 | 90 | 90 |  | Pre-emergence efficacy at 320 g/ha against SETVI in % (Setaria viridis): 90%; Post-emergence efficacy at 320 g/ha against ABUTH in % (Abutilon theophrasti): 90%
17 | Fc1ccc(-c2ccccc2Nc2ncc(Cl)cn2)cc1F [Example 1-28] | 100 |  | 100 |  | 
18 | O=S(=O)(CCC(F)(F)F)Oc1c(F)cccc1Nc1ncc(F)cn1 [Example 1-17] | 90 |  |  |  | 
19 | Fc1cnc(Nc2ccccc2CCCC(F)(F)F)nc1 [Example 1-3] | 90 |  | 90 |  | 
20 | N#Cc1cccc(Nc2ccc(Cl)cn2)c1-n1cc(C(F)(F)F)cn1 [Example 1-59] | 90 | 90 | 100 | 90 | 
21 | Cc1cc(C)c(-c2cc(C(F)F)no2)c(Nc2ccc(Cl)cn2)n1 [Example 2-7] |  |  | 90 |  | 
22 | N#Cc1cccc(Nc2ccc(F)cn2)c1-n1cc(C(F)(F)F)cn1 [Example 1-52] | 90 | 90 | 90 |  | 
23 | FC(F)(F)CCCSc1ccccc1Nc1ncc(Cl)cn1 [Example 1-4] | 90 |  |  |  | 
24 | O=S(=O)(CCCC(F)(F)F)Oc1c(F)cccc1Nc1ncc(F)cn1 [Example 1-15] | 90 |  | 90 |  | 
25 | Clc1ccc(-c2ccccc2Nc2ncc(Cl)cn2)cc1 [Example 1-25] |  |  | 90 |  | Post-emergence efficacy at 320 g/ha against STEME in % (Stellaria media [5]): 100%
26 | N#Cc1cccc(Nc2ncc(Cl)cn2)c1-n1cc(Br)cn1 [Example 1-73] | 100 |  | 90 | 90 | 
27 | Cc1cc(C)c(-c2cc(C(F)F)no2)c(Nc2ncc(Cl)cn2)n1 [Example 2-4] |  |  |  | 90 | Pre-emergence efficacy at 320 g/ha against STEME in % (Stellaria media [2]): 90%; Post-emergence efficacy at 320 g/ha against STEME in % (Stellaria media [5]): 100%
28 | N#Cc1cccc(Nc2ncc(Cl)cn2)c1-n1cccn1 [Example 1-64] | 100 | 100 | 90 | 100 | Pre-emergence efficacy at 320 g/ha against KCHSC in % (Kochia scoparia [6]): 90%; Pre-emergence efficacy at 320 g/ha against SETVI in % (Setaria viridis): 100%; Pre-emergence efficacy at 320 g/ha against DIGSA in % (Digitaria sanguinalis): 90%; Post-emergence efficacy at 320 g/ha against STEME in % (Stellaria media [5]): 90%
29 | N#Cc1cc(Cl)cnc1Nc1cccc(C#N)c1-n1cc(C(F)(F)F)cn1 [Example 1-55] | 100 | 100 | 100 | 90 | 
